# System: normal human skin xenotransplanted onto beige-SCID mice injected with psoriatic patient NK cells
# Experiment: Human NK cell-driven psoriasis model: human skin xenotransplanted onto beige-SCID mice
# Type: in vivo
# Conditions: 5 mg/kg/day p.o., b.i.d., 14 days
# Method: Healthy human skin pieces having a width of 0.4 mm and surface area of 3×3 cm were provided from residual skin of routine plastic surgery procedures from the Plastic Surgery Department of the Rambam Medical Center, Isreal. In addition, blood samples from psoriatic patients were taken at a volume of 25 mL.
# Twenty-one (21) beige-severe combined immunodeficient mice (SCID) (weight about 20 g) were included in this study. Normal human skin was transplanted onto the beige-SCID mice as previously described by Nickoloff et al., 1995; Wrone-Smith, et al., 1996. A sample of each donor was transplanted onto […] so that the three treatment groups (n=7 mice/group) were homogenous.
# PBMC from the psoriatic patient blood were isolated and cultured in the presence of IL-2 (100 U/mL of media) for 14 days to activate the NK cells, as previously described by Gilhar et al., J. Invest. Dermatol. 2002, 119(2):384-91. Four weeks following the engraftment, each mouse was injected with 1×10^7 psoriatic patients activated allogeneic NK cells (1×10^7 cells injected/mouse, n=21). Two weeks following the injections, the mice were divided and treated, twice a day for 14 days. All compounds were dosed at 5 mg/kg/day, divided into b.i.d. doses. To perform p.o. administration, mice were held firmly by gently gripping their fur over the neck with thumb and index fingers and restraining the tail with the little finger. A volume of 0.05 mL of a 1 mg/ml aqueous solution of Compound A was administrated twice a day (b.i.d.) with a syringe through a blunt-ended curved feeding tube, which was inserted into the esophagus. The vehicle (negative) control groups received 0.05 mL (b.i.d.) of a 0.5% carboxymethylcellulose and 0.25% Tween 80. […] Two weeks after starting the treatments (4 weeks following the injections), the skins were harvested. Grafts were analyzed by histology and immunohistochemistry.
# Determination of Epidermal Thickness: Skin graft histological assessment was performed by light microscopy both before and after transplantation and two blinded observers performed the evaluations. Epidermal thickness was determined with an ocular micrometer, at a minimum of 50 points along the epidermis selected to represent points of maximal and minimal thickness. Thickness of the suprapapillary plate was similarly measured at 50 points for each sample.
# Immunohistochemical Staining: Monoclonal antibodies to human antigens used were as follows for immunohistochemistry on frozen sections: anti-HLA-DR (Becton Dickenson, San Jose, Calif.), and anti-CD54 (ICAM-1) (Biodesign, Saco, Me.). Purified murine IgG was used as a control for the above antibodies. Immunohistochemistry was performed on OCT embedded specimens with a biotin-avidin system (Vectostain, Vector Laboratories, Burlingame, Calif.).
# Goat anti-human TNF-α (R&D Systems, Minneapolis, Minn.) was used on deparaffinized and peroxidase blocked slides. Sections were treated with citrate buffer, pH=6, in the microwave oven for 20 minutes. The sections were then cooled for 30 minutes at room temperature and blocked for non-specific binding as well as avidin-biotin. All washes were performed with phosphate-buffered saline-saponin. Anti-TNF-α was applied overnight at 4° C. Slides were then incubated with biotinylated rabbit anti goat-IgG (DAKO, Carpinteria, Calif.), followed by streptavidin horseradish peroxidase (HRP) (Jackson Immunoresearch, West Grove, Pa.). The color was developed with 3-amino-9-ethylcarbazole (AEC).
# Scoring of Immunohistochemical Staining: Diffuse staining was defined as positive and intense expression of more than 50 percent of the epidermis versus focal staining which was defined as less than 50 percent of the epidermis. Focal staining may represent positive expression of very small areas.
# Statistical Analysis: Statistical analysis was carried out using the one-way ANOVA with a Bonferroni Multiple Comparison post-hoc test using Prism 4.00 (GraphPad Software; San Diego, Calif.).
compound,measurement,setting,value
"CCOc1cc([C@@H](CS(C)(=O)=O)N2Cc3cccc(NC(=O)C4CC4)c3C2=O)ccc1OC [Compound A, cyclopropyl-N-{2-[(1S)-1-(3-ethoxy-4-methoxyphenyl)-2-(methylsulfonyl)ethyl]-3-oxoisoindoline-4-yl}carboxamide]",HLA-DR staining: number of grafts (of 7) with Diffuse pattern,,4 Diffuse
same,Histological features: Complete Recovery (grafts of 7),,3/7
same,Histological features: Partial Recovery (grafts of 7),,1/7
same,Histological features: Psoriasiform (grafts of 7),,3/7
same,ICAM-1 staining: number of grafts (of 7) with Diffuse pattern,,3 Diffuse
same,"Recovery, partial or complete (grafts of 7)",,(4/7)
same,TNF-α staining: number of grafts (of 7) with Multiple TNF-α positive cells,,3 Multiple
same,decrease in epidermal thickness compared to vehicle treated animals,,~50%
same,grafts (of 7) with ICAM-1 reduced to focal or negative expression,,4/7
same,grafts (of 7) with few or negative TNF-α expressing cells,,4/7
same,overall response rate (partial plus complete recovery from psoriasis features),,57%
same,percentage of grafts with HLA-DR reduced to focal or negative expression,,43%
same,percentage of grafts with ICAM-1 reduced to focal or negative expression,,57%
same,percentage of grafts with focal HLA-DR expression,,14.3%
same,percentage of grafts with negative HLA-DR expression,,28.6%
same,percentage of grafts with reduced TNF-α expression (partial and complete recovery),,57%
same,"Epidermal Thickness, Mean",mean of 7 grafts,736 μm
same,"Proliferation Index (Ki-67 positive keratinocytes), Mean",mean of 7 grafts,26.2%
same,mean epidermal thickness,mean of 7 mice,736 microns
same,Epidermal Thickness of individual skin graft,Patient 1,687 μm
same,Histological Evaluation of individual skin graft,Patient 1,Partial recovery w/
same,Proliferation Index of individual skin graft,Patient 1,41.9%
same,Epidermal Thickness of individual skin graft,Patient 2,1098 μm
same,Histological Evaluation of individual skin graft,Patient 2,Psoriasiform
same,Proliferation Index of individual skin graft,Patient 2,47.4%
same,Epidermal Thickness of individual skin graft,Patient 3,626 μm
same,Histological Evaluation of individual skin graft,Patient 3,Psoriasiform
same,Proliferation Index of individual skin graft,Patient 3,33.5%
same,Epidermal Thickness of individual skin graft,Patient 4,333 μm
same,Histological Evaluation of individual skin graft,Patient 4,Complete recovery
same,Proliferation Index of individual skin graft,Patient 4,12.2%
same,Epidermal Thickness of individual skin graft,Patient 5,457 μm
same,Histological Evaluation of individual skin graft,Patient 5,Complete recovery
same,Proliferation Index of individual skin graft,Patient 5,9.2%
same,Epidermal Thickness of individual skin graft,Patient 6,627 μm
same,Histological Evaluation of individual skin graft,Patient 6,Complete recovery
same,Proliferation Index of individual skin graft,Patient 6,21.4%
same,Epidermal Thickness of individual skin graft,Patient 7,1324 μm
same,Histological Evaluation of individual skin graft,Patient 7,Psoriasiform
same,Proliferation Index of individual skin graft,Patient 7,17.5%
